Experimental data: patent EP1738742A2, “Benzyl-1,3-thiazolidine-2,4-dione compounds, compositions comprising them and use for stimulating or inducing the growth of keratinic fibres and/or for diminsihing their loss” (L'Oreal, priority 2005, dated 2007)

Biological target: T1, 15-PGDH de type 1 (Homo sapiens, UniProt P15428)
T1 construct: made in house
T1 sequence (P15428 1-266): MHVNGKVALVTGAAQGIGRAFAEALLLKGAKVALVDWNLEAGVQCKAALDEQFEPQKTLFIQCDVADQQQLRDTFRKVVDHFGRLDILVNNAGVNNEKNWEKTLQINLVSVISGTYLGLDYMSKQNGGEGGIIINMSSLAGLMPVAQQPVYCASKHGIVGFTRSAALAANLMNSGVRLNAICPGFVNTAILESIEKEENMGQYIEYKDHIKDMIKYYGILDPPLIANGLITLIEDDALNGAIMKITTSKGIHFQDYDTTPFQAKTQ
Experiment: Test on 15-PGDH type 1: spectrophotometric enzyme inhibition (340 nm, NAD+/PGE2)
Assay type: biochemical
Conditions: concentration reducing the enzymatic activity of 15-PGDH by 50%; Tris 100 mM pH 7,4, 37°C, 50 µM Prostaglandine E2, 1,5 mM β-NAD
Protocol: L'enzyme 15-PGDH est obtenue comme décrit dans la demande FR 02/05067 déposée au nom de L'Oréal, en suspension dans un milieu adapté à une concentration de 0,3 mg/mL puis bloquée à - 80°C. Pour les besoins du test, cette suspension est décongelée et stockée dans de la glace.
Par ailleurs on prépare un tampon Tris 100 mM, pH = 7,4, contenant 0,1 mM de dithiothréitol (D5545, Sigma-Aldrich, L'isle D'Abeau Chesne, BP 701, 38297, Saint Quentin Fallavier), 1,5 mM de β-NAD (N6522, Sigma-Aldrich, L'isle D'Abeau Chesne, BP 701, 38297, Saint Quentin Fallavier), 50 µM de Prostaglandine E2 (P4172, Sigma-Aldrich, L'isle D'Abeau Chesne, BP 701, 38297, Saint Quentin Fallavier).
Dans la cuve d'un spectrophotomètre (Perkin-Elmer, Lambda 2) thermostaté à 37°C, dont la longueur d'onde de mesure est réglée à 340 nm, sont introduits 0,965 ml de ce tampon (préalablement porté à 37°C). 0,035 mL de suspension enzymatique à 37°C sont introduits dans la cuve concomitamment à l'enregistrement ( correspondant à une augmentation de la densité optique à 340 nm). La vitesse maximale de réaction est relevée.
Les valeurs essais (contenant les composés de formule (I)) sont comparées à la valeur témoin (sans composé de formule (I)); les résultats indiqués représentent soit le pourcentage d'inhibition de l'activité enzymatique de 15-PGDH pour une concentration donnée de composé de formule (I), soit la concentration à laquelle le composé de formule (I) réduit de 50% l'activité enzymatique de 15-PGDH, à savoir IC50dh.

Row | Structure (SMILES) | IC50
1 | O=C1NC(=O)C(Cc2ccccc2Oc2ccccc2)S1 (stereo not shown) [compound 3] | 2750 nM
2 | CC(C)(C)c1ccc(Oc2cccc(CC3SC(=O)NC3=O)c2)cc1 (stereo not shown) [compound 5] | 580 nM
3 | CC(C)(C)c1ccc(Oc2ccccc2CC2SC(=O)NC2=O)cc1 (stereo not shown) [compound 4, 5-[2-(4-tert-butylphenoxy)benzyl]-1,3-thiazolidine-2,4-dione] | 400 nM
4 | O=C1NC(=O)C(Cc2ccccc2Oc2ccc(Cl)cc2Cl)S1 (stereo not shown) [compound 2] | 1210 nM
